Key:
RAW264.7 [1] = assay: Cytotoxicity against mouse RAW264.7 cells upto 50 uM measured after 48 hrs by MTT assay; type: toxicity, cell-based; details: raw264.7, 48 h
RAW264.7 [2] = assay: Anti-inflammatory activity in LPS-stimulated mouse RAW264.7 cells assessed as inhibition of NO production measured after 48 hrs by Griess assay; type: functional, cell-based; details: RAW264.7, 48 h
RAW264.7 [3] = assay: Cytotoxicity against mouse RAW264.7 cells upto 25 uM measured after 48 hrs by MTT assay; type: toxicity, cell-based; details: raw264.7, 48 h
RAW264.7 [4] = assay: Cytotoxicity against mouse RAW264.7 cells at 6.25 to 3.125 uM measured after 48 hrs by MTT assay; type: toxicity, cell-based; details: raw264.7, 48 h, dose 6.25-3.125 µM

IC50 (RAW264.7 [2]) | Compound | Activity (RAW264.7 [1]) | Activity (RAW264.7 [3]) | Activity (RAW264.7 [4])
10 µM | C=C1C(=O)O[C@H]2C[C@H](C)[C@@]34C[C@@]5(C(=O)O[C@@H]6C[C@@](C)(O)C([C@@H](C)CCCO)=C[C@@H]65)[C@@H](C(C)=C3C[C@H]12)[C@@H]4OC(C)=O | Non-Toxic | – | –
> 50 µM | Cc1ccc([C@@]2(C(=O)O)CC[C@H](C(=O)O)c3cc([C@@H](C)CCCO)c(C)cc32)cc1[C@@H](C)CCCO | Non-Toxic | – | –
> 50 µM | CC(=O)OCCC[C@H](C)c1cc([C@@]2(C(=O)O)CC[C@H](C(=O)O)c3cc([C@@H](C)CCCO)c(C)cc32)ccc1C | Non-Toxic | – | –
5.73 µM | CC(=O)OCCC[C@H](C)C1=C(C)C[C@H]2OC(=O)[C@@]3(C[C@]45C(=C(C)[C@H]3[C@@H]4OC(C)=O)C[C@H]3[C@H](C[C@@H]5C)OC(=O)[C@H]3C)[C@H]2[C@@H]1O | – | Non-Toxic | –
44 µM | C[C@]12CCC(=O)C=C1CC[C@@H]1[C@@H]2[C@@H](O)C[C@@]2(C)[C@H]1CC[C@]2(O)C(=O)COC(=O)CCC(=O)O [HYDROCORTISONE SODIUM SUCCINATE] | – | – | –
> 50 µM | CC(=O)O[C@H]1[C@@H]2C(C)=C3C[C@H]4[C@H](C[C@H](C)[C@@]31C[C@@]21C(=O)O[C@@H]2C[C@@](C)(O)C([C@@H](C)CCCO)=C[C@@H]21)OC(=O)[C@H]4C | Non-Toxic | – | –
7.82 µM | C=C1C(=O)O[C@H]2C[C@H](C)[C@@]34C[C@](C(=O)O)(c5ccc(C)c([C@@H](C)CCCO)c5)[C@@H](C(C)=C3C[C@H]12)[C@@H]4OC(C)=O | Non-Toxic | – | –
4.07 µM | C=C1C(=O)O[C@H]2C[C@H](C)[C@@]34C[C@@]5(C(=O)O[C@@H]6C[C@](C)(O)C([C@@H](C)CCCOC(C)=O)=C[C@@H]65)[C@@H](C(C)=C3C[C@H]12)[C@@H]4OC(C)=O | – | Non-Toxic | –
> 50 µM | C=C1C[C@H]2OC(=O)[C@@]3(C[C@]45C(=C(C)[C@H]3[C@@H]4OC(C)=O)C[C@@H]3C(=C)C(=O)O[C@H]3C[C@@H]5C)[C@H]2C=C1[C@@H](C)CCCOC(C)=O | – | – | Non-Toxic
> 50 µM | CC(=O)OCCC[C@H](C)c1cc([C@@]2(C(=O)O)CC[C@H](C(=O)O)c3cc([C@@H](C)CCCOC(C)=O)c(C)cc32)ccc1C | Non-Toxic | – | –
> 50 µM | CC(=O)O[C@H]1[C@@H]2C(C)=C3C[C@H]4[C@H](C[C@H](C)[C@@]31C[C@]2(C(=O)O)c1ccc(C)c([C@@H](C)CCCO)c1)OC(=O)[C@H]4C | Non-Toxic | – | –
